“And” between values parts separate entries of the source, which are not always exact repeats. Identical values can stand only once.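 Exposure lasted 48 hours, with cells grown in 96-well plates and compounds tested at five concentrations. GI50: concentration for 50% inhibition of growth.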 The source made the active and inactive calls. No stated cut-off is given here; in the data, active = GI50 up to about 1.1 µM and inactive = higher.
Assays:
Assay in all cases: DTP human tumour cell line panel, 48 h
[1] = test system: 786-0
[2] = test system: A549
[3] = test system: ACHN
[4] = test system: CCRF-CEM
[5] = test system: DLD-1
[6] = test system: DMS-114
[7] = test system: DMS-273
[8] = test system: DU-145
[9] = test system: HCC 2998
[10] = test system: HCT-116
[11] = test system: HOP-18
[12] = test system: HOP-62
[13] = test system: KM-20L2
[14] = test system: LOX IMVI
[15] = test system: M14
[16] = test system: M19-MEL
[17] = test system: MDA-MB-231
[18] = test system: MDA-MB-435
[19] = test system: MDA-N
[20] = test system: Malme-3M
[21] = test system: NCI-H460
[22] = test system: NCI/ADR-RES
[23] = test system: PC-3
[24] = test system: RXF 393
[25] = test system: SF-268
[26] = test system: SF-539
[27] = test system: SK-MEL-2
[28] = test system: SN12C
[29] = test system: SNB-75
[30] = test system: SNB-78
[31] = test system: SW-620
[32] = test system: T47D
[33] = test system: TK-10
[34] = test system: XF498
[35] = test system: A498
[36] = test system: BT-549
[37] = test system: CAKI-1
[38] = test system: COLO 205
[39] = test system: EKVX
[40] = test system: HCT-15
[41] = test system: HL-60
[42] = test system: HOP-92
[43] = test system: HT-29
[44] = test system: Hs-578T
[45] = test system: IGROV-1
[46] = test system: K562
[47] = test system: KM12
[48] = test system: MCF7
[49] = test system: MOLT-4
[50] = test system: NCI-H226
[51] = test system: NCI-H23
[52] = test system: NCI-H522
[53] = test system: OVCAR-3
[54] = test system: OVCAR-4
[55] = test system: OVCAR-5
[56] = test system: OVCAR-8
[57] = test system: RPMI-8226
[58] = test system: SF-295
[59] = test system: SK-MEL-28
[60] = test system: SK-MEL-5
[61] = test system: SK-OV-3
[62] = test system: SNB-19
[63] = test system: SR
[64] = test system: U-251
[65] = test system: UACC-257
[66] = test system: UACC-62
[67] = test system: UO-31

Measured: GI50

Nc1ncnc2c1ncn2C1OC(CO)C(O)C1O (stereo unspecified)
inactive: [1] 43.3 µM | [2] 132 µM | [3] 40.6 µM | [4] 36.7 µM and 34.3 µM | [5] > 373 µM | [6] 68.1 µM | [7] 103 µM | [8] 22.9 µM | [9] 34.9 µM and 43.4 µM | [10] 106 µM and 58.2 µM | [11] 107 µM | [12] 61.9 µM and 70.5 µM | [13] 234 µM | [14] 84.3 µM and 44.2 µM | [15] > 100 µM | [16] 333 µM | [17] > 100 µM | [18] > 100 µM | [19] > 100 µM | [20] 274 µM | [21] 22.3 µM | [22] 117 µM | [23] 31 µM | [24] 104 µM | [25] 232 µM | [26] 179 µM | [27] 97.1 µM | [28] 136 µM | [29] 117 µM | [30] > 450 µM | [31] 153 µM | [32] 77.3 µM | [33] > 100 µM | [34] > 450 µM

COc1ccc(/C=C2\C(=O)NC(=O)c3ccccc32)cc1OC
20.5 µM: [40]
inactive: [1] 16.8 µM | [35] > 66.5 µM | [2] 48.2 µM | [3] 32.2 µM | [36] > 100 µM | [37] 26.7 µM | [38] 50.4 µM | [5] 4.81 µM | [6] 5 µM | [7] 21.4 µM | [8] > 100 µM | [39] 31.6 µM | [9] > 46.6 µM | [10] 6.78 µM | [41] 2.68 µM | [11] > 100 µM | [12] 32.5 µM | [42] 7.96 µM | [43] 54.8 µM | [44] 53.5 µM | [45] 13.8 µM | [46] 3.15 µM | [13] 5.07 µM | [47] 39.4 µM | [14] 10.5 µM | [15] 57.5 µM | [16] 41 µM | [48] 56.9 µM | [17] 48.2 µM | [18] 30.1 µM | [19] > 43.6 µM | [49] 5.77 µM | [20] > 86.9 µM | [50] 49.4 µM | [51] 49.8 µM | [21] 45.6 µM | [52] 16.2 µM | [22] 42.2 µM | [53] 7.48 µM | [54] 34.6 µM | [55] 60.8 µM | [56] 10.1 µM | [23] 45.2 µM | [57] 5.47 µM | [24] 12.2 µM | [25] 18.2 µM | [58] 52.2 µM | [26] 9.12 µM | [59] > 77.3 µM | [27] 45.3 µM | [60] 37.7 µM | [61] 36.3 µM | [28] 42.3 µM | [62] 25.5 µM | [29] 37.4 µM | [30] 6.58 µM | [63] 2.42 µM | [31] 16.6 µM | [32] > 100 µM | [33] > 100 µM | [64] 11.8 µM | [65] > 100 µM | [66] 25.6 µM | [67] 29.9 µM | [34] 6.71 µM
active: [4] 1.09 µM
